Laboratory results taken from patent US20230414624A1, “METHODS OF TREATING NEUROLOGICAL VENTILATORY INSUFFICIENCY” (Enalare Therapeutics Inc., priority 2022, published 2023).
Entries after “also recorded” stand apart in the source; their conditions may differ.

Assays:
[1] = 3 mg/kg IV bolus, animals; cited from earlier work
premature lambs = assay: Premature (preterm) lamb proof of concept study: spontaneous ventilation under IV bolus and ascending continuous infusion; assay type: in vivo
Description: One set of twin lambs were to be delivered premature via cesarian section, stabilized and managed for four hours. […] The protocol was reviewed and approved by the Institutional Animal Care and Use Committee at Thomas D. Morris, Inc., where the study was conducted.
During delivery and with local anesthesia (1 ml; 2% Lidocaine), lambs were instrumented with an endotracheal tube as well as carotid arterial and jugular catheters through an incision at approximately the midpoint of the anterior neck. Once the umbilical cord was tied and severed, lambs were transferred to a heated surgical bed under a radiant warming lamb. The arterial catheter was connected to a transducer for pressure monitoring and the venous catheter was connected to a pump for continuous infusion of 5% dextrose in water (D5W) at a rate of 6 ml/kg/hr. A reaction thermistor was inserted to monitor temperature and lambs were covered with plastic to minimize evaporative heat loss. The airway was suctioned and Surfactant (Curosurf, 2.5 ml/kg) was administered intratracheally over a period of 5 minutes in 4 positions (Trendelenburg, reverse Trendelenburg, and left and right lateral decubitus positions). Lambs were to receive four mechanical breaths for lung recruitment and then started on CPAP initiated at 5 cmH2O and continuously optimized to effect (4-8 cmH2O) along with fraction of inspired oxygen (FIO2) over the course of the study.
The formulation used was a 10 mg/mL aqueous solution (adjusted for the hydrogen sulfate salt and impurities) with a citric acid buffer and a pH of 3.2. The infusion was with ascending dose hourly, while the second lamb was to serve as sham control. […] The four, hourly doses are described in table 1.
For pulmonary function assessments, a pneumotach was placed between the endotracheal tube and the CPAP connector. At least ten representative breaths free of movement of atypical breathing artifact were recorded using a pulmonary function system designed for neonatal research (NewLifeBox-R, Advanced Life Diagnostics, Weener, Germany). For each period the rate, tidal volumes and minute ventilation was derived from an average of the ten breaths. To maintain a stable plain of anesthesia, repeat doses of fentanyl (1 μg IM) were given as needed throughout the protocol based on blood pressure response to stimulation. At the conclusion of the study, animals were sacrificed and tissue sampled harvested for subsequent histopathology.

adult humans = settings: 0.4 mg/kg/hr infusion; cited from earlier work
[2] = test lamb, ascending hourly infusion

CCCNc1nc(NCCC)nc(N(C)OC)n1 [Compound 1, N-(4,6-Bis-n-propylamino-[1,3,5]triazin-2-yl)-O,N-dimethyl-hydroxylamine]
Plasma levels after bolus intravenous injection [1]: transient therapeutic plasma levels
Spontaneous breathing, both lambs (premature lambs; after bolus administration of a loading dose): immediately resulted in spontaneous breathing in both lambs
Respiratory rate (RR), course over the four hours (premature lambs; in vivo): gradually decreased
Spontaneous breathing after IV bolus (premature lambs; sham lamb 4.1 kg, no spontaneous breathing before, single IV bolus 2.4 mg/kg, no infusion): the lamb began breathing spontaneously. After several minutes, the spontaneous breathing efforts abated
Spontaneous breathing after IV bolus loading dose (premature lambs; test lamb 3.2 kg, no spontaneous breathing before, IV bolus 3.1 mg/kg during 0.4 mg/kg/hr infusion, then continuous infusion for four hours): the lamb began breathing spontaneously and never again required manual intervention
Spontaneous minute ventilation (MV) at baseline and for 10 minutes after start of infusion (premature lambs; test lamb, 0.4 mg/kg/hr infusion without loading dose): zero
Spontaneous minute ventilation (MV) immediately following the bolus loading dose (premature lambs; test lamb, IV bolus 3.1 mg/kg): approximately 1,100 mL/min
End tidal carbon dioxide level (EtCO2), course over the four hours (premature lambs; [2]): concomitant decrease; also recorded: progressive decline
Heart rate and mean arterial pressure through the four hours (premature lambs; [2]): stable
Tidal volume, course over the four hours (premature lambs; [2]): consistent rise
Minute ventilation (MV), course over the four hours (premature lambs; test lamb, ascending hourly infusion 0.4, 1.1, 2.0, 12 mg/kg/hr): continued to rise
Minute ventilation (MV), all but the first three measurements of spontaneous breathing (premature lambs; test lamb, ascending hourly infusion, 1,344 mL/min = maximal MV of literature mechanical ventilation): exceeded 1,344 mL/min
Tidal volume per kg of body weight versus lung protective range (premature lambs; test lamb, ascending hourly infusion, range 4 to 6 mL/kg): at least as deep and ultimately surpassed the lung protective range of 4 to 6 mL/kg; also recorded: always within or above the noted target tidal volume range
Respiratory rate (premature lambs; test lamb, whole study period, normal newborn lamb 36 to 48): ≥ 70 breaths per minute
Efficacy of the low dose in adult humans (adult humans): minimal effect; also recorded: limited efficacy; also recorded: humans; minimal efficacy
